Laboratory results taken from ChEMBL document CHEMBL1126525, “Synthesis and DNA cleaving properties of hybrid molecules containing propargylic sulfones and minor groove binding lexitropsins” (Bioorg Med Chem Lett, 1993).

System: Nucleic Acid
Assay: Compound was evaluated for its binding affinity constant to calf thymus DNA
Format: nucleic-acid assay
Conditions: Bos taurus

Row | Structure (SMILES) | Binding affinity [M⁻¹]
1 | O=S(=O)(CC#CCO)c1cccc2ccccc12 | 46000
2 | COC(=O)c1cc(NC(=O)c2cc(NC(=O)c3cc(NC(=O)c4cc(S(=O)(=O)CC#CCO)cc5ccccc45)cn3C)cn2C)cn1C | 89000
3 | COC(=O)c1cc(NC(=O)c2cc(NC(=O)c3cc(NC(=O)c4cccc5c(S(=O)(=O)CC#CCO)cccc45)cn3C)cn2C)cn1C | 720000
